Tests used:
TNF-α = assay: ELISA of LPS-induced TNF-α secretion in RAW264.7 cells; type: cell-based, mouse
Protocol: (§1) RAW264.7 cell culture: mouse mononuclear macrophages (RAW264.7, ATCC) are cultured in a complete medium containing 10% fetal bovine serum (FBS), 1% double antibodies (penicillin and streptomycin), and 89% DMEM at 37° C. and 5% CO2. In this experiment, RAW264.7 cells from passages 3 to 8 are used for related test.
(§2) LPS (100 ng/ml) is added for stimulation, with or without Tan, and the cell supernatant is collected to detect the contents of NO, IL-23, IL-17A, TNF-α, and IL-6 in the cell supernatant. The cell lysate is collected and the protein expressions (STAT3, p-STAT3 (Ser727), and p-STAT3 (Tyr705)) are detected by Western blot. Total cell RNA is extracted and real-time fluorescence quantitative polymerase chain reaction (PCR) is conducted to detect the expression levels of IL-23, IL-17A, TNF-α, and IL-6 mRNA.
(§3) RAW264.7 cells in the logarithmic growth phase were inoculated into a 6-well plate and the cell density was adjusted to 5.0×10^5 cells/well. After culturing for 24 h, the cells were stably adhered to the plate. The original medium was removed and different concentrations (5, 10, 20, 40 μM) of Tan were added to allow pretreatment for 1 h. […] The OD450 nm value of the cell supernatant was detected according to the instructions of the TNF-α and IL-6 ELISA kits, and the content of pro-inflammatory factors (TNF-α and IL-6) in the cell supernatant was calculated.

[1] = tested on: IMQ-induced psoriasis mice; assay: Dorsal skin lesions of IMQ-induced psoriasis mice; type: in vivo, Balb/c mice
Protocol: Balb/c mice (female, 6-8 weeks, 20+2 g), with certificate number [SCXK (Xiang) 2021-0002], were purchased from Hunan SJA Laboratory Animal (Changsha, China). All mice were housed in an specific pathogen free (SPF)-grade animal room with a 12 h light/12 h dark cycle, and experiments were started after the mice were acclimated for one week. Next, 96 mice were randomly divided into 12 groups (8 mice/group), including Control group, Control solvent (white vaseline) group, IMQ group, IMQ solvent (white vaseline) group, preventive administration of positive medicament Clo group (IMQ+Clo 55 mg), therapeutic administration of positive medicament group (IMQ+Clo (A) 55 mg), preventive administration of Tan low-dose group (IMQ+Tan 40 μg/cm^2), medium-dose group (IMQ+Tan160 μg/cm^2), and high-dose group (IMQ+Tan 640 μg/cm^2), and therapeutic administration of Tan low-dose group (IMQ+Tan (A) 40 μg/cm^2), medium-dose group (IMQ+Tan (A) 160 μg/cm^2), and high-dose group (IMQ+Tan (A) 640 μg/cm^2). After the mice were anesthetized, a 2 cm×3 cm area on the back was selected for hair removal. Modeling began 48 h after hair removal, and all modeling mice were applied with 65 mg (55 mg on the back and 5 mg on each ear) of IMQ cream every morning for 10 d. In the Tan preventive administration groups, the low-dose group (40 μg/cm^2), the medium-dose group (160 μg/cm^2), and the high-dose group (640 μg/cm^2) were topically administered to the back and ears every afternoon starting from the first day of modeling for 10 d. In the Tan therapeutic administration groups, the low-dose group (40 μg/cm^2), the medium-dose group (160 μg/cm^2), and the high-dose group (640 μg/cm^2) were topically administered to the back and ears every afternoon starting from the 3rd day of modeling for 10 d. The mice in the preventive positive medicament group received Clo (55 mg/mouse, 45 mg on the back, 5 mg on each ear) treatment from the first day of modeling, and the mice in the therapeutic positive medicament group received Clo (55 mg/mouse, 45 mg on the back, 5 mg on each ear) treatment from the third day of modeling.

p-STAT3 = assay: Immunohistochemistry of p-STAT3 in dorsal skin of IMQ-induced psoriasis mice; type: in vivo, Balb/c mice; details: preventive and therapeutic administration groups; dose-dependent
Protocol: (§4) Balb/c mice (female, 6-8 weeks, 20+2 g), with certificate number [SCXK (Xiang) 2021-0002], were purchased from Hunan SJA Laboratory Animal (Changsha, China). All mice were housed in an specific pathogen free (SPF)-grade animal room with a 12 h light/12 h dark cycle, and experiments were started after the mice were acclimated for one week. Next, 96 mice were randomly divided into 12 groups (8 mice/group), including Control group, Control solvent (white vaseline) group, IMQ group, IMQ solvent (white vaseline) group, preventive administration of positive medicament Clo group (IMQ+Clo 55 mg), therapeutic administration of positive medicament group (IMQ+Clo (A) 55 mg), preventive administration of Tan low-dose group (IMQ+Tan 40 μg/cm^2), medium-dose group (IMQ+Tan160 μg/cm^2), and high-dose group (IMQ+Tan 640 μg/cm^2), and therapeutic administration of Tan low-dose group (IMQ+Tan (A) 40 μg/cm^2), medium-dose group (IMQ+Tan (A) 160 μg/cm^2), and high-dose group (IMQ+Tan (A) 640 μg/cm^2). After the mice were anesthetized, a 2 cm×3 cm area on the back was selected for hair removal. Modeling began 48 h after hair removal, and all modeling mice were applied with 65 mg (55 mg on the back and 5 mg on each ear) of IMQ cream every morning for 10 d. […]

IL-23 mRNA = assay: Real-time fluorescence quantitative PCR, LPS-induced IL-23 mRNA in RAW264.7 cells; type: cell-based, mouse
Protocol: as §1, §2
RAW264.7 cells were inoculated into 6-well plate and the cell density was adjusted to 5.0×10^6 cells/well. […] The fluorescence intensity of each sample was detected according to the instructions of the real-time fluorescence quantitative PCR kit and specific primers (Table 1) (cycle conditions: enzyme activation 95° C. for 3 min, 1 cycle; denaturation 95° C. for 15 s, annealing/extension 60° C. for 1 min, 40 cycles). The mRNA expression level of each group was normalized with the GAPDH expression level, and the relative expression of mRNA was calculated using the 2^−ΔΔCt method.

IL-6 = assay: ELISA of LPS-induced IL-6 secretion in RAW264.7 cells; type: cell-based, mouse
Protocol: as §1, §2, §3

PCNA = assay: Immunohistochemistry of PCNA in dorsal skin of IMQ-induced psoriasis mice; type: in vivo, Balb/c mice; details: preventive and therapeutic administration groups; dose-dependent
Protocol: as §4

IL-17A = assay: Immunohistochemistry of IL-17A in dorsal skin of IMQ-induced psoriasis mice; type: in vivo, Balb/c mice; details: preventive and therapeutic administration groups; dose-dependent
Protocol: as §4

NO = assay: Griess assay of LPS-induced NO production in RAW264.7 cells; type: cell-based, mouse
Protocol: as §1, §2
RAW264.7 cells in the logarithmic growth phase were inoculated into a 48-well plate and the cell density was adjusted to 1.0×10^5 cells/well. After cultured for 24 h, the cells were stably adhered to the plate. The original medium was removed and different concentrations (5, 10, 20, 40 μM) of Tan were added to allow pretreatment for 1 h. […] OD540 nm value of the cell supernatant was detected according to the instructions of a Griess kit, and the NO content in the cell supernatant was calculated.

[2] = 5-40 μM, 24 h, vs LPS group, P<0.001, dose-dependent

COc1ccc(-c2cc(=O)c3c(OC)c(OC)c(OC)c(OC)c3o2)cc1 [Tan, tangeretin]
inhibitory effect on TNF-α secretion compared with positive control Clo (TNF-α; 40 μM): comparable to that of the positive control
TNF-α level in the cell supernatant (TNF-α; [2]): significantly decreased
improvement of dorsal skin lesions compared with positive control Clo ([1]; high-dose (640 μg/cm^2) preventive and therapeutic groups): comparable to that of the positive control Clo
erythema and scaling of dorsal skin ([1]; preventive and therapeutic topical administration, 40/160/640 μg/cm^2, vs IMQ group, dose-dependent): significant reduction in erythema and scaling
scales and erythema on the dorsal skin ([1]; preventive group (from first day of modeling)): almost disappeared
back scales after treatment ([1]; therapeutic group (from 3rd day of modeling)): only a minimal amount of back scales remained
expression level of p-STAT3 in the dorsal skin (p-STAT3): significantly reduced
inhibitory effect on IL-23 mRNA compared with positive control Clo (IL-23 mRNA; 40 μM): comparable to that of the positive control Clo
relative expression level of IL-23 mRNA (IL-23 mRNA; 5-40 μM, 24 h, vs LPS, P<0.001, dose-dependent): significantly decreased
inhibitory effect on IL-6 secretion compared with positive control Clo (IL-6; 40 μM): comparable to that of the positive control
IL-6 level in the cell supernatant (IL-6; [2]): significantly decreased
expression level of PCNA in the dorsal skin (PCNA): significantly reduced
expression level of IL-17A in the dorsal skin (IL-17A): significantly reduced
inhibitory effect on NO compared with positive control Clo (NO; 40 μM, 24 h): comparable to that of the positive control
NO content in the cell supernatant (NO; [2]): significantly reduced
inhibitory effect on the production of NO (NO; 48 h): strong inhibitory effect

Reference: patent publication US20250255845A1, “USE OF INTERLEUKIN (IL)-17A INHIBITOR IN PREPARATION OF MEDICAMENT FOR TREATING INFLAMMATORY DISEASE” (Xiangnan University, priority 2024, published 2025)
